The term IC50 denotes the midpoint of a concentration-inhibition curve.

Where a name gives a salt, the structure may show the parent alone. Read-outs that look alike come from different tables or passages of the source. Where only a bound is given, the exact number is not on record here.

Assay [1] concerns the target T1, BTK (Homo sapiens, UniProt Q06187).
T1 construct: purchased Upstate 14-552
Description: In Vitro BTK Kinase Assay: Btk-PolyGAT-LS Assay. The class given is biochemical. Conditions: active BTK enzyme 0.25 nM, polyGAT 100 nM, 30 minutes, TRF readout; read-out: In Vitro BTK Kinase Assay IC50 Score. Put shortly:
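IC50 values came from a four-parameter fit, with DMSO controls as 100% activity and EDTA controls as 0%. The signal was TR-FRET from a Tb-PY20 antibody binding fluorescein-polyGAT (100 nM) phosphorylated by 0.25 nM BTK. Kinase reactions used 10 μM ATP, a 4-fold compound titration, and ran 30 minutes before EDTA stop.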

Assay [2] deals with CD69 expression on CD19+ B cells in human whole blood. The assay can be described thus: In Vitro whole blood CD69 Assay. The class given is cell-based. Conditions: B-cell, read-out: In Vitro HWB CD69 Assay IC50 Score. Summed up:
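Heparinized healthy-donor human whole blood was preincubated with compound (0.1% DMSO) for 30 min at 37 °C. Stimulation used 0.1 µg/mL anti-IgD-dextran or 20 µg/mL rabbit F(ab′)2 anti-IgD for 18–22 h at 37 °C. CD69 on gated CD19+ B cells was then measured by flow cytometry.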

[3] abbreviates: human heparinized whole blood, anti-human IgD stimulation overnight, CD19+ B cells, flow cytometry.

T1 sequence (Q06187 whole entry): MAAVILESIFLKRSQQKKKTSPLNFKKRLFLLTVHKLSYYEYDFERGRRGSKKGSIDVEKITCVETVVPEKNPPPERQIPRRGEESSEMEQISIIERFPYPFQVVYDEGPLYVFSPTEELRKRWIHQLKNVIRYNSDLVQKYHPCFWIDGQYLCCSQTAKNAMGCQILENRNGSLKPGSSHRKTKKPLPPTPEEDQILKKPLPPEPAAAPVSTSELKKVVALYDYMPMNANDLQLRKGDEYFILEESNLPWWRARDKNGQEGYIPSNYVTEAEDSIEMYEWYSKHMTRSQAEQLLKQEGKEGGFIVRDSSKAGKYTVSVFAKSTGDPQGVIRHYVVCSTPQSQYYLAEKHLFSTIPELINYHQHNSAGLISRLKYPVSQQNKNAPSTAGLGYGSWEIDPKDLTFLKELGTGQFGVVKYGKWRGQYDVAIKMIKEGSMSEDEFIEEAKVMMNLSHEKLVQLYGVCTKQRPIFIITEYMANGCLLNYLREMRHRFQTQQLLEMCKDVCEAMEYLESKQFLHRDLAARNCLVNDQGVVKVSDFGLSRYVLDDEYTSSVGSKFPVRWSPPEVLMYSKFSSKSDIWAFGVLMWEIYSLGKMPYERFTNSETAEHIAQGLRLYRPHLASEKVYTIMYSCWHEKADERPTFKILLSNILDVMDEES

As to `Cn1cc(-c2cc3nccn3c(-c3ccc(CNC(=O)c4ccn(C(C)(C)C)n4)cc3)n2)cn1` [Example 56, 1-(tert-butyl)-N-(4-(7-(1-methyl-1H-pyrazol-4-yl)imidazo[1,2-c]pyrimidin-5-yl)benzyl)-1H-pyrazole-3-carboxamide], the IC50 was in the range of 10 to 1000 nM in assay [1] and 1000 to 10000 nM in assay [2] (setting [3]).

On to `C[C@@H]1C(c2nc(C(=O)NCc3ccc(-c4nc(-c5cnn(C)c5)cc5nccn45)cc3)no2)[C@@H]1C` (mixture of isomers) [Example 62, 5-(2,3-cis-dimethylcyclopropyl)-N-(4-(7-(1-methyl-1H-pyrazol-4-yl)imidazo[1,2-c]pyrimidin-5-yl)benzyl)-1,2,4-oxadiazole-3-carboxamide], for which the IC50 in assay [1] was in the range of 1 to 10 nM; in assay [2] (Homo sapiens) it was 1000 to 10000 nM.

For `Cn1cc(-c2cn3nccc3c(-c3ccc(CNC(=O)c4ccn(C(C)(C)C)n4)c(F)c3)n2)cn1` [Example 11, 1-(tert-butyl)-N-(2-fluoro-4-(6-(1-methyl-1H-pyrazol-4-yl)pyrazolo[1,5-a]pyrazin-4-yl)benzyl)-1H-pyrazole-3-carboxamide], the IC50 lay within 1 to 10 nM in assay [1] and 1000 to 10000 nM in assay [2] (setting [3]).

For the molecule `Cn1cc(-c2cn3ncnc3c(N3CCC(CNC(=O)c4nnn(C(C)(C)C)n4)CC3)n2)cn1` [Example 72, 2-(tert-butyl)-N-((1-(6-(1-methyl-1H-pyrazol-4-yl)-[1,2,4]triazolo[1,5-a]pyrazin-8-yl)piperidin-4-yl)methyl)-2H-tetrazole-5-carboxamide], the IC50 in assay [1] lay within 1 to 10 nM; in assay [2] (setting [3]), 1000 to 10000 nM.

Turning to `Cn1cc(-c2cn3nccc3c(-c3ccc(CNC(=O)c4noc(C5(C)CC5)n4)cc3)n2)cn1` [Example 5, N-(4-(6-(1-methyl-1H-pyrazol-4-yl)pyrazolo[1,5-a]pyrazin-4-yl)benzyl)-5-(1-methylcyclopropyl)-1,2,4-oxadiazole-3-carboxamide], the IC50 was below 1 nM in assay [1] and below 1000 nM in assay [2] (setting [3]).

`CN1CCN(c2cn3nccc3c(-c3ccc(CNC(=O)c4cn(C(C)(C)C)nn4)c(F)c3)n2)CC1` [Example 128, 1-(tert-butyl)-N-(2-fluoro-4-(6-(4-methylpiperazin-1-yl)pyrazolo[1,5-a]pyrazin-4-yl)benzyl)-1H-1,2,3-triazole-4-carboxamide trifluoroacetate]: the results for the IC50 in assay [1] and in assay [2] (setting [3]) were 10 to 1000 nM and 1000 to 10000 nM, respectively.

In the case of `Cn1cc(-c2cc(-c3ccc(CNC(=O)c4noc(C(C)(C)C)n4)c(F)c3)c3ccnn3c2)cn1` [Example 68, 5-(tert-butyl)-N-(2-fluoro-4-(6-(1-methyl-1H-pyrazol-4-yl)pyrazolo[1,5-a]pyridin-4-yl)benzyl)-1,2,4-oxadiazole-3-carboxamide], the IC50 in assay [1] is below 1 nM; in assay [2] (Homo sapiens), below 1000 nM.

Regarding `Cc1c(CNC(=O)c2noc(C(C)(C)C)n2)ccc(-c2nc(-c3cnn(C)c3)cn3nccc23)c1F` [Example 81, 5-(tert-butyl)-N-(3-fluoro-2-methyl-4-(6-(1-methyl-1H-pyrazol-4-yl)pyrazolo[1,5-a]pyrazin-4-yl)benzyl)-1,2,4-oxadiazole-3-carboxamide], the IC50 in assay [1] is below 1 nM; in assay [2] (setting [3]) it was below 1000 nM.

Take `Cn1cc(-c2cn3nccc3c(-c3ccc(CNC(=O)c4nnc(C(C)(C)C)o4)c(F)c3)n2)cn1` [Example 6, 5-(tert-butyl)-N-(2-fluoro-4-(6-(1-methyl-1H-pyrazol-4-yl)pyrazolo[1,5-a]pyrazin-4-yl)benzyl)-1,3,4-oxadiazole-2-carboxamide]: the IC50 in assay [1] is below 1 nM; in assay [2] (Homo sapiens), below 1000 nM.

Turning to `CC(C)(C)c1nc(C(=O)NCc2ccc(-c3nc(N4CCOCC4)cn4nccc34)cc2)no1` [Example 23, 5-(tert-butyl)-N-(4-(6-morpholinopyrazolo[1,5-a]pyrazin-4-yl)benzyl)-1,2,4-oxadiazole-3-carboxamide], the IC50 in assay [1] and in assay [2] (setting [3]) was 1000 to 10000 nM in each case.

`Cn1cc(-c2cn3nccc3c(N3CCC(C)(CNC(=O)c4noc(C(C)(C)C)n4)CC3)n2)cn1` [Example 41, 5-(tert-butyl)-N-((4-methyl-1-(6-(1-methyl-1H-pyrazol-4-yl)pyrazolo[1,5-a]pyrazin-4-yl)piperidin-4-yl)methyl)-1,2,4-oxadiazole-3-carboxamide]: the IC50 was 1 to 10 nM in assay [1] and 1000 to 10000 nM in assay [2] (setting [3]).

For the molecule `Cn1cc(-c2cc(-c3ccc(CNC(=O)c4cn(C(C)(C)C)nn4)c(F)c3)c3ccnn3c2)cn1` [Example 69, 1-(tert-butyl)-N-(2-fluoro-4-(6-(1-methyl-1H-pyrazol-4-yl)pyrazolo[1,5-a]pyridin-4-yl)benzyl)-1H-1,2,3-triazole-4-carboxamide], the figures for the IC50 in assay [1] and in assay [2] (setting [3]) were below 1 nM and below 1000 nM, respectively.

Take `Cn1cc(-c2cn3nccc3c(-c3ccc(CNC(=O)c4nc(C(C)(C)C)no4)cc3F)n2)cn1` [Example 108, 3-(tert-butyl)-N-(3-fluoro-4-(6-(1-methyl-1H-pyrazol-4-yl)pyrazolo[1,5-a]pyrazin-4-yl)benzyl)-1,2,4-oxadiazole-5-carboxamide]: the results for the IC50 in assay [1] and in assay [2] (setting [3]) were below 1 nM and below 1000 nM, respectively.

For the molecule `Cn1cc(-c2cn3nccc3c(-c3ccc(CNC(=O)c4nnn(C(C)(C)C)n4)c(F)c3F)n2)cn1` [Example 87, 2-(tert-butyl)-N-(2,3-difluoro-4-(6-(1-methyl-1H-pyrazol-4-yl)pyrazolo[1,5-a]pyrazin-4-yl)benzyl)-2H-tetrazole-5-carboxamide], the IC50 in assay [1] was below 1 nM; in assay [2] (setting [3]) it was below 1000 nM.

On to `C[C@@H]1C[C@@H](CNC(=O)c2cn(C(C)(C)C)nn2)CCN1c1nc(-c2cnn(C)c2)cn2nccc12` (single isomer, unassigned) [Example 143], for which the IC50 in assay [1] is 1 to 10 nM; in assay [2] (setting [3]) it was 1000 to 10000 nM.

Turning to `Cn1cc(-c2cc(-c3ccc(CNC(=O)c4noc(C5(C)CC5)n4)cc3)n3cnnc3c2)cn1` [Example 76, N-(4-(7-(1-methyl-1H-pyrazol-4-yl)-[1,2,4]triazolo[4,3-a]pyridin-5-yl)benzyl)-5-(1-methylcyclopropyl)-1,2,4-oxadiazole-3-carboxamide], the results for the IC50 in assay [1] and in assay [2] (setting [3]) were 10 to 1000 nM and 1000 to 10000 nM, respectively.

On to `Cn1cc(-c2cc3nccn3c(-c3ccc(CNC(=O)c4cnn(C(C)(C)C)c4)cc3)n2)cn1` [Example 57, 1-(tert-butyl)-N-(4-(7-(1-methyl-1H-pyrazol-4-yl)imidazo[1,2-c]pyrimidin-5-yl)benzyl)-1H-pyrazole-4-carboxamide], for which the IC50 lay within 1 to 10 nM in assay [1] and 1000 to 10000 nM in assay [2] (setting [3]).

Regarding `Cn1cc(-c2cn3nccc3c(-c3ccc4c(c3)CN(CC(F)(F)F)CC[C@H]4NC(=O)c3cn(C(C)(C)C)nn3)n2)cn1` [Example 40, (R)-1-(tert-butyl)-N-(8-(6-(1-methyl-1H-pyrazol-4-yl)pyrazolo[1,5-a]pyrazin-4-yl)-2-(2,2,2-trifluoroethyl)-2,3,4,5-tetrahydro-1H-benzo[c]azepin-5-yl)-1H-1,2,3-triazole-4-carboxamide], the IC50 in assay [1] was 1 to 10 nM; in assay [2] (setting [3]), below 1000 nM.

Turning to `Cn1cc(-c2cn3nccc3c(N3CC[C@@H](CNC(=O)c4noc(C(C)(C)C)n4)C(F)(F)C3)n2)cn1` (single isomer, unassigned) [Example 158], the IC50 in assay [1] is below 1 nM; in assay [2] (setting [3]), below 1000 nM.

For the origin of these results see US20250034150A1, “BTK INHIBITORS” (BIOGEN MA INC., priority 2021, published 2025).
